{"source": "patent US20110195432A1", "about": "“METHODS FOR THE SELECTION OF THERAPEUTIC TREATMENTS FOR CANCER” (priority 2008, published 2011)", "key": {"HDAC6 [1]": {"tested_on": "HDAC6", "assay": "Western blot of HDAC6 protein levels, VCaP cells", "assay_type": "cell-based", "conditions": "increasing concentrations of CDDO-Imidazole, 24 hours", "source_text": "(§1) The vehicle sample was set to 1."}, "acetylated alpha-tubulin": {"tested_on": "acetylated alpha-tubulin", "assay": "Western blot of acetylated alpha-tubulin, LNCaP cells", "assay_type": "cell-based", "conditions": "LNCaP cells; increasing concentrations of CDDO-Imidazole, 24 hours", "protocol": "as §1\nLNCaP cells were transiently transfected with either a siRNA sequence complementary to the luciferase gene ([…]; SEQ ID NO: 8) or to HDAC6 ([…]; SEQ ID NO: 9) using DharmaFECT 3 transfection reagent for a final concentration of 100 nM (Dharmacon, Lafayette, Colo.). At 48, 72, and 96 hours post-transfection, cells were harvested. Levels of protein expression by Western blot were quantified."}, "acetylated tubulin": {"tested_on": "acetylated tubulin", "assay": "Western blot of acetylated tubulin, VCaP cells", "assay_type": "cell-based", "conditions": "increasing concentrations of CDDO-Imidazole, 24 hours", "source_text": "as §1"}, "AR [2]": {"tested_on": "AR", "assay": "Western blot of AR protein levels, LNCaP cells", "assay_type": "cell-based", "conditions": "LNCaP cells"}, "AR [3]": {"tested_on": "AR", "assay": "Western blot of AR protein levels, VCaP cells", "assay_type": "cell-based", "conditions": "TSA or increasing concentrations of CDDO-Imidazole (24 hours), compared with sulforaphane results"}, "HDAC6 [4]": {"tested_on": "HDAC6", "assay": "Western blot of HDAC6 protein levels, LNCaP cells", "assay_type": "cell-based", "conditions": "LNCaP cells"}, "Her2Neu protein": {"tested_on": "Her2Neu protein", "conditions": "breast cancer cells; through proteasomal degradation; cited from earlier work"}, "AR [5]": {"tested_on": "AR", "assay": "Real-time PCR of AR gene expression, VCaP cells", "assay_type": "cell-based", "conditions": "24 hours, increasing doses of sulforaphane, or TSA, vehicle set to 1", "source_text": "(§2) All samples were run in triplicate. The vehicle-treated sample was set to 1."}, "AR [6]": {"tested_on": "AR", "assay": "Western blot of AR protein levels, LNCaP cells", "assay_type": "cell-based", "protocol": "Immunoprecipitation and immunoblotting were performed as described (Qian et al., Clin. Cancer Res. 12:634-42, 2006). The following antibodies used in immunoblotting or immunoprecipitations (indicated dilutions are for immunoblotting): AR (1:1000, #06-680 Upstate, Billerica, Mass.); acetylated lysine (#05-515 Upstate, Billerica, Mass.); acetylated tubulin (1:2000, #T6793 Sigma, St. Louis, Mo.); alpha-tubulin (1:10,000, #T6074 Sigma, St. Louis, Mo.); beta-actin (1:5000, #A5441 Sigma, St. Louis, Mo.); ERG-1/2/3, (1:5000, #sc-354X Santa Cruz, Santa Cruz, Calif.); FLAG epitope (#F7425 Sigma, St. Louis, Mo.); GAPDH (1:5000, #sc-32233 Santa Cruz, Santa Cruz, Calif.); HDAC6 (1:1000, #sc-11420 Santa Cruz); HSP90 (1:1000, #SPA-840 Stressgen, Ann Arbor, Mich.); mouse IgG (#sc-2025 Santa Cruz, Santa Cruz, Calif.). The following secondary antibodies were used: ECL-conjugated anti-mouse IgG, (1:5000, #A6782 Sigma, St. Louis, Mo.); ECL-conjugated anti-rabbit IgG (1:3000, #NA934 Amersham, Piscataway, N.J. or 1:10,000, #sc-2004 Santa Cruz, Santa Cruz, Calif.). X-ray exposures were scanned as uncompressed images and bands were quantified by densitometry with Quantity One software (Bio-Rad, Hercules, Calif.). Intensity values were normalized to those of the endogenous controls. The vehicle sample was set to 1. Enrichment was calculated as: (intensity IP/intensity input)/(intensity IgG/intensity input) or intensity IP/input (FIG. 1B).\nLNCaP cells were treated with sulforaphane in a dose-response (5 μM to 20 μM) and time-course (12 and 24 hours) manner to investigate the effect of HDAC6 inhibition on AR protein levels. Western blotting was performed as described in Example 1. […]"}, "AR [7]": {"tested_on": "AR", "assay": "Real-time PCR of AR gene expression, LNCaP cells", "assay_type": "cell-based", "conditions": "increasing doses of sulforaphane, or TSA, vehicle set to 1", "source_text": "as §2"}}, "note": "Residues, ends and D or L forms follow the SMILES beside them. *: point of attachment. Cbz = O=C(OCc1ccccc1)*", "data": [{"smiles": "CC1(C)CC[C@]2(C(=O)n3ccnc3)CC[C@]3(C)[C@H](C(=O)C=C4[C@@]5(C)C=C(C#N)C(=O)C(C)(C)[C@@H]5CC[C@]43C)[C@@H]2C1", "note": "[CDDO-Imidazole]", "values": [{"measurement": "HDAC6 protein", "setting": "HDAC6 [1]", "result": "depletes HDAC6 in a dose-dependent manner"}, {"measurement": "tubulin acetylation", "setting": "acetylated alpha-tubulin", "result": "increased tubulin acetylation"}, {"measurement": "tubulin acetylation", "setting": "acetylated tubulin", "result": "increased tubulin acetylation"}, {"measurement": "AR protein levels", "setting": "AR [2]; TSA or increasing concentrations of CDDO-Imidazole (24 hours), compared with sulforaphane results", "result": "reduced AR protein levels"}, {"measurement": "AR protein levels", "setting": "AR [3]", "result": "reduced AR protein levels"}, {"measurement": "HDAC6 protein", "setting": "HDAC6 [4]; increasing concentrations of CDDO-Imidazole, 24 hours", "result": "depletes HDAC6 in a dose-dependent manner"}, {"measurement": "Her2Neu protein levels", "setting": "Her2Neu protein", "result": "deplete Her2Neu protein levels"}]}, {"smiles": "CC(C)C[C@@H](C=O)NC(=O)[C@H](CC(C)C)NC(=O)[C@H](CC(C)C)NC(=O)OCc1ccccc1", "note": "[MG132] (Cbz-Leu-Leu-Leu-aldehyde)", "values": [{"measurement": "AR protein levels, MG132 alone", "setting": "AR [2]; 24 hours, 10 μM MG132 versus vehicle", "result": "did not change AR protein levels"}]}, {"smiles": "CC(/C=C/C(=O)NO)=C\\[C@@H](C)C(=O)c1ccc(N(C)C)cc1", "note": "[TSA, trichostatin A]", "values": [{"measurement": "AR transcripts", "setting": "AR [5]", "result": "suppressed AR transcripts"}, {"measurement": "AR steady state level with simultaneous MG132 treatment", "setting": "AR [6]; 24 hours, sulforaphane 20 μM or 300 nM TSA with 10 μM MG132", "result": "restored the AR steady state level close to that seen in the vehicle-treated control"}, {"measurement": "AR protein in the absence of MG132", "setting": "AR [6]; 24 hours, sulforaphane 20 μM or 300 nM TSA, versus vehicle-treated cells", "result": "dramatic reductions"}, {"measurement": "AR protein levels at 24 hours", "setting": "AR [6]; sulforaphane 15 μM and 20 μM, TSA", "result": "recovered"}, {"measurement": "HDAC6 protein levels", "setting": "HDAC6 [4]; 16 hours, 300 nM TSA without or with 20 μM MG132", "result": "minimal effects"}, {"measurement": "AR transcripts", "setting": "AR [7]", "result": "suppressed AR transcripts"}]}]}
